Measurements reported in patent US20260028334A1, “N-(3-(BENZO[B]THIOPHENE-2-CARBOXAMIDO)-PHENYL)-2,3-DIHYDROBENZO[B][1,4]DIOXINE-6-CARBOXAMIDE DERIVATIVES AND RELATED COMPOUNDS AS LACTATE/ATP PRODUCTION INHIBITORS FOR THE TREATMENT OF CANCER” (WMT Aktiengesellschaft, priority 2022, published 2026).

Assays:
lactate production = assay: Lactate production inhibition assay; type: cell-based; details: summary of Table 1
Source text: (§1) Recombinant Lactate Dehydrogenase A (LDHA) was used to convert lactate in tissue culture supernatants to pyruvate, with the concomitant reduction of NAD^+ to NADH. The electron acceptor 1-methoxyphenazine methosulfate (MPMS) was then reduced by the generated NADH, thereby regenerating NAD+. Reduced 1-methoxyphenazine methosulfate is used in turn to reduce Water Soluble Tetrazolium 8 (WST8) to an orange WST8 formazan product. The assay is adapted from the publication “Application of WST-8 based colorimetric NAD(P)H detection for quantitative dehydrogenase assays” described in Chamchoy et al., BMC Biochemistry (2019) 20(1):4.
(§2) Cells were plated at 4,000 per well in 96-well plate in a medium of high glucose DMEM (PAN) supplemented with 10% FBS (PAN), 2 mM glutamine-alanine (PAN), 2 mM pyruvate (Sigma) and 10 mL/L penicillin-streptomycin (PAN) and grown at 37° C. in 0.5% O2, 5% CO2 and 75% humidity. For hypoxia, cells were grown and treated in the Whitley H35 Hypoxystation (Don Whitley Scientific) at 37° C. in 0.5% O2, 5% CO2 and 75% humidity. The next day, cells were induced with test compounds (FIG. 2: compounds of examples 3/16, 3/8, 10 at 10000, 3333, 1111, 370, 123, 41, 14, 5 and 1.5 nM; FIG. 7: compounds of examples 3/16, 3/8, 10 at 41, 14, 4.6 nM and Phenformin at 100, 50, 25, 12.5, 6.25 μM; FIGS. 8C and 8D: compounds of example 3/16, 3/8, 10, 3/19, 30 and 30/2 at 10000, 3333, 1111, 370, 123, 41, 14, 5 and 1.5 nM), as well as with vehicle (DMSO) only, for 48 hours. After this time, the medium was removed from the cells to measure extracellular lactate. To detect extracellular lactate, cell supernatants are diluted 1:5 in assay buffer (0.2 M tris, pH 8.2) by adding 10 μl cell supernatant+40 μl buffer in a 96-well plate. Assay substrate mix is prepared by adding NAD+ (3.75 mM), WST-8 (0.9 mM), MPMS (10 mM) and recombinant LDHA, expressed in E. coli as an N-terminal hexahistidine tagged fusion protein, is added to a final concentration of 0.8 μg/ml in assay buffer. Thereafter, 80 μl of substrate mix is added to 20 μl of diluted cell supernatant in a 96-well flat-bottomed plate and the absorbance at 460 nm determined at one minute intervals over a 30 minute period. A standard curve of known lactate concentrations of 10, 8, 6, 4, 1, 0.5 and 0.25 mM was constructed for each assay plate.

Panc02 and SKOV3 cells [1] = assay: Lactate production inhibition assay (FIGS. 8C and 8D); type: cell-based; details: 48 hours treatment, 1.5 to 10000 nM
Source text: as §1, §2

Panc02 and SKOV3 cells [2] = assay: Assay for inhibition of ATP production (FIGS. 8A and 8B); type: cell-based; details: 48 hours treatment, 1.5 to 10000 nM
Experimental: The assay determines the amount of ATP in cells in culture.
Cells were plated at 4,000 per well in 96-well plate in a medium of high glucose DMEM (PAN) supplemented with 10% FBS (PAN), 2 mM glutamine-alanine (PAN), 2 mM pyruvate (Sigma) and 10 mL/L penicillin-streptomycin and grown at 37° C. in 0.5% O2, 5% CO2 and 75% humidity. For hypoxia, cells were grown and treated in the Whitley H35 Hypoxystation (Don Whitley Scientific) at 37° C. in 0.5% O2, 5% CO2 and 75% humidity. The next day, cells were induced with test compounds (FIG. 1: compounds of examples 3/16, 3/8, 10 at 10000, 3333, 1111, 370, 123, 41, 14, 5 and 1.5 nM; FIGS. 8A and 8B: compounds of example 3/19, 30 and 30/2 at 10000, 3333, 1111, 370, 123, 41, 14, 5 and 1.5 nM), as well as with vehicle (DMSO) only, for 48 hours. After this time, the medium was removed from the cells and intracellular ATP levels were determined using the Promega CellTiter-Glo 2.0 assay protocol (Promega, G9241). To estimate the effect of compounds on the ATP production, sample values were compared to the values of DMSO only. IC50 values were generated by plotting the luciferase counts against compound concentration.

[3] = system: ER stress markers CHAC and CHOP/DDIT3; assay: Gene expression analysis by qPCR (FIG. 8E-8AB); type: cell-based; details: Panc02 and SKOV3 cells, 10 nM, 0.5, 1, 2 and 4 hours
Experimental: Cells were plated at 40,000 cells per ml in medium of high glucose DMEM (PAN) supplemented with 10% FBS (PAN), 2 mM glutamine-alanine (PAN), 2 mM pyruvate (Sigma) and 10 mL/L penicillin-streptomycin (PAN), and grown at 37° C. in 0.5% O2, 5% CO2 and 75% humidity. Next day, cells were induced with test compounds (FIG. 3: compounds of example 3/16, 3/8, 10 at 10 nM; FIG. 8E-8AB: compounds of example 3/16, 3/8, 10, 3/19, 30 and 30/2 at 10 nM) 0.5, 1, 2 and 4 hours, as well as with vehicle (DMSO) only. After this time, the cells were lysed according to protocol (Promega, SV 96 Total RNA Isolation System, #Z3505). After transferring the lysate to a 96-well-RNA binding plate, RNA was isolated and put at approx. 1 μg into cDNA synthesis using LunaScript RT SuperMix Kit (NEB, #E3010). The resulting cDNA was diluted 1:5 and used for qPCR Analysis (Taqman). Luna Universal Probe qPCR Master Mix (NEB, #M3004) is used as 2× reaction mix to which the diluted cDNA is added. The qPCR analysis was performed using QuantStudio™ 6 Flex real-time PCR systems (Thermo Fisher Scientific).
A set of primers plus probe for each gene of interest was purchased at IDT (Integrated DNA Technologies).

[4] = patients treated with the drug; cited from earlier work

Compound	activity in inhibiting production of ATP and/or lactate (lactate production)	lactate levels (Panc02 and SKOV3 cells [1])	ATP production level (Panc02 and SKOV3 cells [2])	ER stress markers CHAC and CHOP/DDIT3 [3]	incidence of lactic acidosis [4]
O=C(Nc1ccc(F)c(NC(=O)c2cc3ccc(OCC(O)CN4CCCC4)cc3s2)c1)c1ccc2c(c1)OCCO2 (racemic) [Example 30, N-(4-Fluoro-3-(6-(2-hydroxy-3-(pyrrolidin-1-yl)propoxy)benzo[b]thiophene-2-carboxamido)phenyl)-2,3-dihydrobenzo[b][1,4]dioxine-6-carboxamide]	high activity	dose-dependent downregulation	dose-dependent reduction	time-dependent upregulation	–
O=C(Nc1ccc(F)c(NC(=O)c2cc3ccc(OC[C@H](O)CN4CCCC4)cc3s2)c1)c1ccc2c(c1)OCCO2 (single isomer, unassigned) [Example 30/2, N-(4-Fluoro-3-(6-(2-hydroxy-3-(pyrrolidin-1-yl)propoxy)benzo[b]thiophene-2-carboxamido)phenyl)-2,3-dihydrobenzo[b][1,4]dioxine-6-carboxamide]	high activity	dose-dependent downregulation	dose-dependent reduction	time-dependent upregulation	–
CCN1CCN(Cc2ccc3cc(C(=O)Nc4cc(NC(=O)c5ccc6c(c5)OCCO6)ccc4F)sc3n2)CC1 [3/19]	high activity	dose-dependent downregulation	dose-dependent reduction	time-dependent upregulation	–
CN(C)C(=N)N=C(N)N [Metformin, metformin]	–	–	–	–	3 cases in 100,000 patients
[H]/N=C(/N)N/C(=N/[H])NCCc1ccccc1 [Phenformin, phenformin]	–	–	–	–	64 cases in 100,000 patients
